Data published in patent publication US20060160869A1, “Ubiquitin ligase inhibitors” (Rigel Pharmaceuticals, Inc., priority 2005, published 2006).
pIC50: −log10 of the molar value.

How the values were obtained:
[1] = system: DLD-1 cells; experiment: PAD anti-proliferation assay, DLD-1; assay type: cell-based; conditions: Homo sapiens, 48 hours
[2] = system: HCT116 cells; experiment: PAD anti-proliferation assay, HCT; assay type: cell-based; conditions: Homo sapiens, HCT-116, 48 hours
Protocol: A549 (ATCC# CCL 185), HeLa (ATCC# CCL 2), HCT116 (ATCC# CCL-247), and H 1299 (ATCC# CRL-5803) cells were maintained in T175 flasks following the ATCC recommended media and handling procedures. Flasks reaching approximately 70% confluency were trypsinized and resuspended in RPMI media (Cell Gro catalog number 10 040 CM) modified to contain 5% FBS, 100 ug/mlPen/Strep (Cell Gro catalog number 30 002 CL), and 0.3 mg/ml L Glutamine (Cell Gro catalog number 25 003 CL). A 20,000 cells/ml solution was made for plating. Cells were plated in black Packard 96 well plates by placing 100 μl per well (2,000 cells per well).
Compounds and additional media were added 24′ hours after cell plating. A compound master plate was created with concentrations 500 times greater than the final concentration added to the cells. All compound testing was done in duplicate using 3 fold dilutions starting with 10 mM. All outside wells (and 4 internal wells) were DMSO controls. Taxol and at least one additional control were run on all plates. Three microliters of the compound master plate were added to deep well blocks containing 750 μl of RPMI media. One hundred microliters were transferred from the compound/media deep well blocks to the plated cells resulting in a 500 fold dilution of the compounds. Cells were grown at 37° C., 5% CO2 for 48 hours.
Cells to be analyzed by photography were fixed and stained. One hundred microliters of media were removed and 100 μl of 2% paraformaldehyde was added to each well. Plates were left on the benchtop for 45 minutes. A staining solution containing 1.55 μl of 1 mg/ml DAPI added to 18.75 ml PBS was warmed for 15 minutes at 37° C. The cells were aspirated prior to washing with 100 μl of PBS. Seventy microliters of PBS were aspirated and 170 μl of the DAPI solution were added to each well of fixed cells. Plates were left at room temperature for one hour then aspirated and washed twice with 100 μl of PBS. The stained cells were left at 4° C. for a minimum of 16 hours before photographic analysis with Array Scan II (Cellomics). Analysis of the photographic images to determine numbers of live cells (proliferation), apoptotic cells and dead cells, were according to the methods described in U.S. Provisional Patent Application Ser. No. 60/406,714, which incorporated herein in its entirety.

[3] = system: p53 reporter system in p53 null H1299 cell line; experiment: p53-dependent transcription reporter assay, H1299RE; assay type: cell-based; conditions: p53 −ve cell type; maximal fold induction over DMSO control
Source text: (§1) Stable lines of U2OS (osteosarcoma; Wild-type p53 positive), HCT116 (colorectal carcinoma; Wild-type p53 positive) and H1299 (lung non-small cell carcinoma; p53 null) carrying p53-dependent transcriptional regulatory element linked to a Luciferase reporter gene and H1299 carrying a 5′-regulatory region of GADD45 linked to Luciferase were used.
(§2) Day 1: Cells were re-plated into 96-well plates at suitable densities to make 50-60% confluence on Day 2. The plating densities are as follows: 7.5×10^3 cells/well (or 2.5×10^4 cells/cm^2) for U2OS; 1.5×10^4 cells/well (or 5.0×10^4 cells/cm^2) for HCT116; and 1.0×10^4 cells/well (or 3.3×10^4 cells/cm^2) for H1299.
(§3) Day 2: The compounds or control drugs were diluted in dimethyl sulfoxide (DMSO) and added to the wells to create 6-points/2-fold serial dilution (20, 10, 5, 2.5, 1.25, 0.625 and 0 μM) for each compound. The DMSO concentration was adjusted to 0.2% in all wells.
(§4) Day 3: Twenty to 24 hours after compound addition, cells were twice washed with PBS and lysed with Glo-lysis buffer (100 μl/well, Promega; Cat#E2661). Plates were subjected to gentle agitation on a table-top shaker for 5 minutes at room temperature. Fifty μl of lysate was transferred to an assay plate to test for luciferase activity and mixed with 2× assay buffer (Promega; Cat# E1483). The reaction mixture was left at room temperature for 2 minutes and then luminescence was measure by a luminometer (Victor™, 1420 Multilabel Counter, Wallac).
(§5) Data analysis was done on Excel software (Microsoft). Values in Table 4 represent maximal fold induction over negative control (DMSO only) and are the mean of at least duplicate experiments.
H1299RE is p53 null […] cell line containing p53 reporter system. Numbers indicate the selectivity of the compound with smaller number being higher selectivity.

[4] = system: GADD45 promoter (DNA damage response reporter); experiment: H1299 GADD45 reporter system; assay type: cell-based; conditions: human; p53 −ve cell type; maximal fold induction over DMSO control; read-out: Fold Induction, H1299GADD45
Source text: as §1, §2, §3, §4, §5
H1299 GADD45 Reporter System is a system in which GADD45 is induced in p53-null cells in response to DNA damage. This cell line expresses the 5′-regulatory region of the GADD45 gene. This assay provides a way to rule out the possibility of DNA damage due to the compounds.

[5] = biological target: E1 and E2 (UBCH5a) (Homo sapiens, UniProt P22314+P51668); experiment: E1/E2 plate enzyme counter assay; assay type: biochemical; conditions: Table 3, counter assay
Source text: E1/E2 is E1 and E2 (UBCH5a) enzyme counter assay.

| pIC50 [1] | pIC50 [2] | Fold Induction of p53 activity, H1299RE [3] | E1/E2 plate μM [5] | Compound | fold induction [4] |
| --- | --- | --- | --- | --- | --- |
| 4.70 to 6.00 | 4.70 to 6.00 | – | – | O=C(c1ccc(CN(Cc2cccc(OC(F)(F)F)c2)c2nc(-c3ccccc3)cs2)cc1)N1CCNCC1 [compound 275] | – |
| 4.70 to 6.00 | 4.70 to 6.00 | – | – | O=C(c1ccc(CN(Cc2cccc(OC(F)(F)F)c2)c2nc(-c3ccc4ccccc4c3)cs2)cc1)N1CCNCC1 [compound 282, 4-(2-naphthyl)-N-[4-(piperazin-1-ylcarbonyl)benzyl]-N-[3-(trifluoromethoxy)benzyl]-1,3-thiazol-2-amine] | – |
| – | 4.70 to 6.00 | c (c means 1.5 or less) | – | COc1cccc(-c2csc(N(Cc3ccc(C(=O)N4CCNCC4)cc3)Cc3cccc(OC(F)(F)F)c3)n2)c1 [compound 351] | ≤ 1.5 |
| – | – | c (c means 1.5 or less) | – | COc1cccc(-c2csc(N(CCOc3ccccc3)Cc3ccc(C(=O)N4CCNCC4)cc3)n2)c1 [compound 352] | ≤ 1.5 |
| – | 4.70 to 6.00 | c (c means 1.5 or less) | – | COc1cccc(CN(Cc2ccc(C(=O)N3CCNCC3)cc2)c2nc(-c3ccc(Br)cc3)cs2)c1OC [compound 353] | ≤ 1.5 |
| 4.70 to 6.00 | 4.70 to 6.00 | c (c means 1.5 or less) | + (+ means 20 μM or greater) | O=C(c1ccc(CN(CCOc2ccccc2)c2nc(-c3ccc(Cl)c(Cl)c3)cs2)cc1)N1CCNCC1 [compound 360] | ≤ 1.5 |
